Consider two molecules from US20050038062A1, “Methods and materials for the treatment of pain comprising opioid antagonists” (priority 2003, published 2005).

For experiment [1], the system named is rats with L5/L6 spinal nerve ligation (SNL). Kind of experiment: thermal hyperalgesia: paw-withdrawal latency to radiant heat, rat L5/L6 spinal nerve ligation (SNL) model. It is filed as in vivo. Conditions: intrathecal twice daily. The method, then: (§1) This example describes an evaluation of neuropathic pain in an animal model. An in vivo rat L5/L6 spinal nerve ligation (SNL) study is conducted as described by Kim and Chung (1992). These in vivo experiments to evaluate neuropathic pain with compounds and compositions according to the invention as prescribed herein are conducted on male Sprague-Dawley rats (Harlan; Indianapolis, Ind.) that are 200-225 g at the time of the L5/L6 surgery as described below. The rats are maintained in a climate-controlled room on a 12-h light/dark cycle (lights on at 06:00 h); food and water are provided ad libiturn. The testing is performed in accordance with accepted policies and guidelines for the handling and use of laboratory animals.
In an initial study, the effects of intrathecally delivered morphine and naloxone or morphine alone are tested after ligation of the L5 and L6 spinal nerves in rats. At one week, after a neuropathic pain syndrome of thermal hyperalgesia and tactile allodynia is stabilized, rats receive daily intrathecal injections of vehicle, morphine alone, morphine plus naloxone or naloxone alone for seven days. […] The animals first undergo intrathecal implantation of a catheter that allows for drug delivery at the lumbar (L5) spinal cord region. Animal baseline withdrawals from thermal and tactile stimuli are recorded. Animals then undergo the L5/L6 ligation surgery as described below and are tested for tactile and thermal hypersensitivities, for example, on day 3 through day 7 after the surgery, and then, for example, on day 8, animals begin the twice daily intrathecal administration of vehicle or drug substances in doses as described below. Animals are tested, for example, from about 20 to about 30 minutes after the first daily intrathecal dose for hyperalgesic and anti-allodynia effects for a total of 7 days as described below.
While under halothane anesthesia, an 8 cm length of 32 gauge tubing is inserted in the Sprague-Dawley rats to the level of the lumbar enlargement via an incision made in the atlanto-occipital membrane. The catheter is then secured to the musculature at the site of incision, which is then closed. The rats receive 4.4 mg/kg of gentamycin (intramuscular administration) as a prophylactic precaution and are allowed 5-7 days for recovery before experimentation begins, for example, before L5/L6 ligation surgery begins as described below. […] Intrathecally administered substances are dissolved in saline (to a total volume of 5 μl) prior to administration through a length of tubing connecting the intrathecal catheter with the injection syringe. Progress of the injection is determined by observing the movement of an air bubble through a calibrated length of the tubing. The catheter is cleared by flushing with 9 μl saline.
For these experiments, morphine, when given either as the sole drug or in combination with naltrexone to the rats, is administered to the rats at a dosage ranging from 1-30 micrograms, if given intrathecally. Naltrexone, when given either as the sole drug or in combination with morphine to the rats, is administered to the rats at a dosage ranging from 1 femtogram (fg) to 30 nanograms (ng) if given intrathecally. For other experiments, if given systemically, morphine, when given either as the sole drug or in combination with naltrexone to the rats, is administered to the rats at a dosage ranging from 1 mg/kg to 20 mg/kg. If given systemically, naltrexone, when given either as the sole drug or in combination with morphine to the rats, is administered to the rats at a dosage ranging from 1 femtogram to 300 nanograms. Administration of drug or vehicle to the rat is performed, for example, both on a BID or QID basis. For these experiments, morphine sulfate is purchased from Sigmia (St. Louis, Mo.) and naltrexone hydrochloride is purchased from Tocris (Ellisville, Mo.). These substances are dissolved in sterile 0.9% physiological saline from Baxter (Deerfield, Ill.).

Experiment [2] has the same test system. Conditions: morphine given alone by the intrathecal route; stated as well known; cited from earlier work.
For experiment [3] the test system is unchanged. Kind of experiment: tactile allodynia: paw-withdrawal threshold to von Frey filaments, rat L5/L6 spinal nerve ligation (SNL) model. It counts as in vivo. Particulars: naltrexone 0.1 ng alone, intrathecal twice daily; initial study. The method, then: as §1
In an initial study, the effects of intrathecally delivered morphine and naloxone or morphine alone are tested after ligation of the L5 and L6 spinal nerves in rats. […] Animal baseline withdrawals from thermal and tactile stimuli are recorded. […]
While under halothane anesthesia, an 8 cm length of 32 gauge tubing is inserted in the Sprague-Dawley rats to the level of the lumbar enlargement via an incision made in the atlanto-occipital membrane. […] Progress of the injection is determined by observing the movement of an air bubble through a calibrated length of the tubing. […]

Entries after “also recorded” stand apart in the source; their conditions may differ.

Turning to `CN1CC[C@]23c4c5ccc(O)c4O[C@H]2[C@@H](O)C=C[C@H]3[C@H]1C5` [morphine], the antihyperalgesia in experiment [1] (morphine 10 μg alone, day 8 after SNL (= Day 1 of administration), initial study) is given as 65%; in experiment [1] (morphine 10 μg alone, day 9 after SNL (= Day 2), initial study), 73%. Moreover, the “antihyperalgesia (activity)” value in experiment [1] (morphine 10 μg alone, day 11 after SNL (= Day 4), initial study) was determined as 38%. Also, in experiment [1] (morphine 10 μg alone, initial study (day 11 after SNL = Day 4)), the “tolerance to the antihyperalgesia effect” value is recorded as “tolerance to the antihyperalgesia effect by day 11; also recorded: tolerance to the anti-hyperalgesia effect by Day 4”. In addition, in experiment [1] (morphine 10 μg alone, initial study (day 12 after SNL = Day 5)), the “antihyperalgesia, return to baseline” value is listed as “return to baseline by day 12; also recorded: return to baseline by day 5”. Further, the antiallodynic effect entry in experiment [2] was “no antiallodynic effect”.
As to `O=C1CC[C@@]2(O)[C@H]3Cc4ccc(O)c5c4[C@@]2(CCN3CC2CC2)[C@H]1O5` [naltrexone], the effect on antihyperalgesia entry in experiment [1] (naltrexone 0.1 ng alone, initial study) was “no effect”. The effect on allodynia result in experiment [3] is listed as “no effect”.
